According to ChEMBL document CHEMBL1157356, “Discovery of pyrrolopyridine-pyridone based inhibitors of Met kinase: synthesis, X-ray crystallographic analysis, and biological activities” (J Med Chem, 2008):
One block for each molecule: values may come before it.

How the values were obtained:
[1] = target: Hepatocyte growth factor receptor (Homo sapiens, UniProt P08581); test: Inhibition of MET
[2] = Antiproliferative activity against human GTL16 cells after 72 hrs by MTS assay; assay type: functional, cell-based; conditions: GTL 16, 72 h
NCI-N87 = test: Antiproliferative activity against human N87 cells after 72 hrs by MTS assay; assay type: functional, cell-based; conditions: NCI-N87, 72 h
[3] = Half life in BALB/c mouse at 5 mg/kg, iv; assay type: ADME, organism-based; parameters: dose 5 mg/kg, route intravenous; conditions: in vivo
[4] = Tmax in BALB/c mouse at 10 mg/kg, po; assay type: ADME, organism-based; parameters: dose 10 mg/kg, route oral; conditions: in vivo
[5] = target: Vascular endothelial growth factor receptor 2 (Homo sapiens, UniProt P35968); test: Inhibition of VEGFR2
[6] = target: Cyclin-dependent kinase 2 (Homo sapiens, UniProt P24941); test: Inhibition of CDK2/cyclin E
[7] = Mean residence time in BALB/c mouse at 5 mg/kg, iv; assay type: ADME, organism-based; parameters: dose 5 mg/kg, route intravenous; conditions: in vivo
[8] = AUC (0 to 24 hrs) in BALB/c mouse at 5 mg/kg, iv; assay type: ADME, organism-based; parameters: time < 24 hr, dose 5 mg/kg, route intravenous; conditions: plasma
[9] = Antitumor activity against human GTL16 cells xenografted BALB/c mouse assessed as at 12.5 mg/kg, po qd administered 14 days after tumor implantation; conditions: GTL 16, po, 336 h, read-out: TGI
[10] = Half life in BALB/c mouse at 10 mg/kg, po; assay type: ADME, organism-based; parameters: dose 10 mg/kg, route oral; conditions: in vivo
Liver microsomes = test: Metabolic stability in human liver microsomes assessed as metabolic rate per mg of protein at 3 uM; assay type: ADME, Microsome
[11] = Antitumor activity against human GTL16 cells xenografted po dosed BALB/c mouse administered once daily 14 days after tumor implantation; assay type: functional; conditions: GTL 16, po, 336 h, read-out: MED
[12] = Oral bioavailability in BALB/c mouse at 10 mg/kg, po; assay type: ADME, organism-based; conditions: in vivo
[13] = Toxicity in human GTL16 cells xenografted BALB/c mouse assessed as maximum tolerated dose at 100 mg/kg, po qd administered 14 days after tumor implantation; assay type: organism-based; parameters: dose 100 mg/kg, route oral; conditions: in vivo
[14] = target: Protein kinase C alpha type (Homo sapiens, UniProt P17252); test: Inhibition of PKCalpha
[15] = target: T1, Receptor-type tyrosine-protein kinase FLT3 (Homo sapiens, UniProt P36888); test: Inhibition of Flt3
T1 sequence (P36888 whole entry): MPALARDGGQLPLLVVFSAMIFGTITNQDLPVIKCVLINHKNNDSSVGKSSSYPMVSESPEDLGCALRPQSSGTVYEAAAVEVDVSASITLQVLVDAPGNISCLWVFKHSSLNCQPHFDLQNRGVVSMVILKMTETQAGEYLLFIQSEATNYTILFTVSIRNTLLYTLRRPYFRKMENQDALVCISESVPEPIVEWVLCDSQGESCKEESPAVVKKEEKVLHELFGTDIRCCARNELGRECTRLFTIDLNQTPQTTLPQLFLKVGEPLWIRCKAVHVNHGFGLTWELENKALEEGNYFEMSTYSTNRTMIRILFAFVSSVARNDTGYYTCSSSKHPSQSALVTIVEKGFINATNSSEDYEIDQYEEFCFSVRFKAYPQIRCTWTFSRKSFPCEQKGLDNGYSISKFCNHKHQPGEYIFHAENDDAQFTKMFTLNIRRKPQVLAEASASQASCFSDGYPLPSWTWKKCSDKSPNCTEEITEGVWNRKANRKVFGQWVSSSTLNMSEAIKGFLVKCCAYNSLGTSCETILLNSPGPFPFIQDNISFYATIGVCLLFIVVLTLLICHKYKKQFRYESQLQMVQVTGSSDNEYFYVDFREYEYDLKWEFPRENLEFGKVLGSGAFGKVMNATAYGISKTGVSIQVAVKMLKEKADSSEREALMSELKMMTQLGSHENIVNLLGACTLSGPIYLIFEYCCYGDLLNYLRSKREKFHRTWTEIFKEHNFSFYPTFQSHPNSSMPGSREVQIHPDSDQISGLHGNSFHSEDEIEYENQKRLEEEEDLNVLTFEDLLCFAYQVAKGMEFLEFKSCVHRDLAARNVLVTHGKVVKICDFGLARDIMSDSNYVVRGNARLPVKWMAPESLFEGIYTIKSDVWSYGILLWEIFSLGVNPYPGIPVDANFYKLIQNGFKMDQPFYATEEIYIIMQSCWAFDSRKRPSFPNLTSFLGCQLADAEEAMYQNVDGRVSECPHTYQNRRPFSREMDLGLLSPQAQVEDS

[16] = Cmax in BALB/c mouse at 10 mg/kg, po; assay type: ADME, organism-based; parameters: dose 10 mg/kg, route oral; conditions: in vivo
[17] = AUC (0 to 24 hrs) in BALB/c mouse at 10 mg/kg, po; assay type: ADME, organism-based; parameters: time < 24 hr, dose 10 mg/kg, route oral; conditions: plasma
Serum [18] = test: Protein binding in mouse serum at 10 uM by equilibrium dialysis method; assay type: ADME, cell-free
Insulin receptor = Insulin receptor (Homo sapiens, UniProt P06213); test: Inhibition of InsR
[19] = Inhibition of PKA
[20] = target: Tyrosine-protein kinase Lck (Homo sapiens, UniProt P06239)
[21] = target: Mast/stem cell growth factor receptor Kit (Homo sapiens, UniProt P10721); test: Inhibition of c-Kit
[22] = Volume of distribution at steady state in BALB/c mouse at 5 mg/kg, iv; assay type: ADME, organism-based; parameters: dose 5 mg/kg, route intravenous; conditions: in vivo, read-out: Vdss
[23] = Mean residence time in BALB/c mouse at 10 mg/kg, po; assay type: ADME, organism-based; parameters: dose 10 mg/kg, route oral; conditions: in vivo
[24] = Antitumor activity against human GTL16 cells xenografted BALB/c mouse assessed as induction of complete tumor stasis at 25 mg/kg, po qd administered 14 days after tumor implantation; assay type: functional; conditions: GTL 16, 336 h, read-out: TGI
[25] = Clearance in BALB/c mouse at 5 mg/kg, iv; assay type: ADME, organism-based; parameters: dose 5 mg/kg, route intravenous; conditions: in vivo
[26] = Metabolic stability in mouse liver microsomes assessed as metabolic rate per mg of protein at 3 uM; assay type: ADME, Microsome
[27] = Antitumor activity against human GTL16 cells xenografted BALB/c mouse assessed as induction of tumor regression at 50 mg/kg, po qd administered 14 days after tumor implantation; assay type: functional; conditions: GTL 16, 336 h, read-out: TGI
[28] = target: Insulin-like growth factor 1 receptor (Homo sapiens, UniProt P08069); test: Inhibition of IGF1R
[29] = target: MAP kinase-activated protein kinase 2 (Homo sapiens, UniProt P49137); test: Inhibition of MK2
Serum [30] = test: Protein binding in human serum at 10 uM by equilibrium dialysis method; assay type: ADME, cell-free

Sequence of Hepatocyte growth factor receptor (P08581 whole entry): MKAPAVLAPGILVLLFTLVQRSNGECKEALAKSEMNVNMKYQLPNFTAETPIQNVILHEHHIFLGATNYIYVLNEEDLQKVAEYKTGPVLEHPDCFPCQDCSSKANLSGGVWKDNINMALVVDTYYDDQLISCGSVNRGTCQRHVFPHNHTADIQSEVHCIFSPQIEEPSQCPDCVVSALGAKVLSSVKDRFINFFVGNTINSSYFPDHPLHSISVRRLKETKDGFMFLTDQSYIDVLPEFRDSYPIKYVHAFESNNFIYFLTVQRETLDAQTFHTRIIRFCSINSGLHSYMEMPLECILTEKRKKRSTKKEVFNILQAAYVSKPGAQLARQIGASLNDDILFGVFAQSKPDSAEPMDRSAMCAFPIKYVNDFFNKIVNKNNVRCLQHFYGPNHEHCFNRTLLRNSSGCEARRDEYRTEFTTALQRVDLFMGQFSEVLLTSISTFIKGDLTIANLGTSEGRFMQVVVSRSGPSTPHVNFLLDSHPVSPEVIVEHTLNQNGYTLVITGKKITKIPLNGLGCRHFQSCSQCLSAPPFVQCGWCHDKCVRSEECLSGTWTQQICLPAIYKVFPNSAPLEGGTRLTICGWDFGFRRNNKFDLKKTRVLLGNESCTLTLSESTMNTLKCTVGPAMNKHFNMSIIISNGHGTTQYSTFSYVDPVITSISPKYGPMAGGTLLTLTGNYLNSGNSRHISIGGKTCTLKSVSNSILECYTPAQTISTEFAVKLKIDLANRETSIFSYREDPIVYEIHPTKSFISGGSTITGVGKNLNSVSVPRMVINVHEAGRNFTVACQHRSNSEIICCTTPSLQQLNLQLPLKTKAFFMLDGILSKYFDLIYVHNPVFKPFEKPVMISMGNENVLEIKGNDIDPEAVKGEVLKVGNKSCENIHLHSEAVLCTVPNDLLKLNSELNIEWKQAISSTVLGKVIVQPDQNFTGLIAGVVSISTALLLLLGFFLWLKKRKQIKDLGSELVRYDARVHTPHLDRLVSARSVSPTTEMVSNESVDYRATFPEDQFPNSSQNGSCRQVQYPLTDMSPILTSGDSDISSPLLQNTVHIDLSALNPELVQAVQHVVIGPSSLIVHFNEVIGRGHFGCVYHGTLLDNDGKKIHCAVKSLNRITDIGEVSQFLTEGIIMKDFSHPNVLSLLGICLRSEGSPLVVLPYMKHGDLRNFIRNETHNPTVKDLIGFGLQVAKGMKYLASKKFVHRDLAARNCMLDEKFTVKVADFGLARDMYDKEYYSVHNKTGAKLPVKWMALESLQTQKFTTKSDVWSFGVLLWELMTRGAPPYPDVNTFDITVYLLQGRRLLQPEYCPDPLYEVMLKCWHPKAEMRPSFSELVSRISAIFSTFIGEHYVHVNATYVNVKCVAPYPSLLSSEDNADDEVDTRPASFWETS
Sequence of Tyrosine-protein kinase Lck (P06239 whole entry): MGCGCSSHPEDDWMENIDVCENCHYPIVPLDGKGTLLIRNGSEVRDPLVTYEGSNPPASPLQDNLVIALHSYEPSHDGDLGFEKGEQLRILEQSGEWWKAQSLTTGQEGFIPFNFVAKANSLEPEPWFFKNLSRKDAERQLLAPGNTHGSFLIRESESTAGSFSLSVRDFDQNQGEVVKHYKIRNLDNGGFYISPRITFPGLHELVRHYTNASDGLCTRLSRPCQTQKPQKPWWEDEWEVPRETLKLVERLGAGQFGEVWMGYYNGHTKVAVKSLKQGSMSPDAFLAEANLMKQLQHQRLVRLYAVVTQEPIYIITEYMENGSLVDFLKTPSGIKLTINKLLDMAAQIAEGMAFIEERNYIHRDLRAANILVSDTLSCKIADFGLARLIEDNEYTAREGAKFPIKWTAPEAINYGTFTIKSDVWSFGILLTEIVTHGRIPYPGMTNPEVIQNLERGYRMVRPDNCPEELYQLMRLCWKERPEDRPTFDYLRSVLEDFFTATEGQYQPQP
Sequence of MAP kinase-activated protein kinase 2 (P49137 whole entry): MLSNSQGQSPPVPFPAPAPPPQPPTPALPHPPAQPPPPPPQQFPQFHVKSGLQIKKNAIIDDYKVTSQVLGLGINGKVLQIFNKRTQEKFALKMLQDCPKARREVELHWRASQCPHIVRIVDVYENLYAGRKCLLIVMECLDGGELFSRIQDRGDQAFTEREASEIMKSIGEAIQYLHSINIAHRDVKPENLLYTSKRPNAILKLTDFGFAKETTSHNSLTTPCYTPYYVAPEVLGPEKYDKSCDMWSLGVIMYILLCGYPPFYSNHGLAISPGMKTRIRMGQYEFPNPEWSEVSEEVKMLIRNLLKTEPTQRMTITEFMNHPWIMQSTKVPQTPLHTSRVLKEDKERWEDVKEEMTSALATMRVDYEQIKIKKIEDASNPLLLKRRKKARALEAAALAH
Sequence of Insulin-like growth factor 1 receptor (P08069 31-736 limits assumed): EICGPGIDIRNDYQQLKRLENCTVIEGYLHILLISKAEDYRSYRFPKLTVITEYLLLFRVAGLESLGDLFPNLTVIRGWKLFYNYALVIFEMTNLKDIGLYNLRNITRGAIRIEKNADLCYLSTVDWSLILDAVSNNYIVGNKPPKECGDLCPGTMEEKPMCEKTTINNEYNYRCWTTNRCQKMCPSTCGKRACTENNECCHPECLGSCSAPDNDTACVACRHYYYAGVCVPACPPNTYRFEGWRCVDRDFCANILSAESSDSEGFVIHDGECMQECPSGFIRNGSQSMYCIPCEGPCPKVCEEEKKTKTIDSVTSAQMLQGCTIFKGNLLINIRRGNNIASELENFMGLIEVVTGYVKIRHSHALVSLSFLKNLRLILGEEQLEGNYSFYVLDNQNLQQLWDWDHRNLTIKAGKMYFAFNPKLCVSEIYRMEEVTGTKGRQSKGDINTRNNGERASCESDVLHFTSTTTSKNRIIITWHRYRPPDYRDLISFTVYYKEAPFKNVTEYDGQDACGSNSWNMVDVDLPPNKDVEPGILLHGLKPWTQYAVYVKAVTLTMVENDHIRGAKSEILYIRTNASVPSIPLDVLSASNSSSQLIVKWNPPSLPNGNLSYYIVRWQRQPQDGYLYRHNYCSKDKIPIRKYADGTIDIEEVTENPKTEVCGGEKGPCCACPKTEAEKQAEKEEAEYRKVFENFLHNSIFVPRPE
Sequence of Insulin-like growth factor 1 receptor (P08069 741-1367 limits assumed): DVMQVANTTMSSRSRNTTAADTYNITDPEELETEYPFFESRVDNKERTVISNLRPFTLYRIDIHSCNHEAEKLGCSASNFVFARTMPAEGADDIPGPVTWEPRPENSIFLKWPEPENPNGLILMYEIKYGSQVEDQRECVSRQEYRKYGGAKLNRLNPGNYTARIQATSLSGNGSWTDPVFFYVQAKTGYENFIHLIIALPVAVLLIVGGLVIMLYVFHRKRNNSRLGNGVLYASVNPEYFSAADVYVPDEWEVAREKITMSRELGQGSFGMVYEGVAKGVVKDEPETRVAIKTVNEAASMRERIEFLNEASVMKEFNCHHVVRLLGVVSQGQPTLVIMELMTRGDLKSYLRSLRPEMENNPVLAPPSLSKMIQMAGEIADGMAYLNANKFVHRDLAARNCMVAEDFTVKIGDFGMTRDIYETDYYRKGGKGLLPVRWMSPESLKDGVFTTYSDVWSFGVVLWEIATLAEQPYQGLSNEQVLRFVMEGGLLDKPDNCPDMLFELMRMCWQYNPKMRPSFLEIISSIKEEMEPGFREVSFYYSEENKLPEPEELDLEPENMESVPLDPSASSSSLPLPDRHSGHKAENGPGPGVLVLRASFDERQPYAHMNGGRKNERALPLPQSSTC

SMILES: O=C(Nc1ccc(Oc2ccnc3[nH]ccc23)c(F)c1)c1cocc(-c2ccc(F)cc2)c1=O
IC50 [1]: 1.4 µM
IC50 [2]: > 10 µM

SMILES: O=C(Nc1ccc(Oc2ccnc3[nH]ccc23)c(F)c1)c1cccn(-c2ccccc2)c1=O
IC50 [1]: 0.0019 µM
IC50 (NCI-N87): > 5 µM
IC50 [2]: 0.14 µM

SMILES: NC(=O)c1ccc(-n2cccc(C(=O)Nc3ccc(Oc4ccnc5[nH]ccc45)c(F)c3)c2=O)cc1
IC50 [1]: 1 µM
IC50 [2]: > 5 µM

SMILES: CC(C)CCn1cccc(C(=O)Nc2ccc(Oc3ccnc4[nH]ccc34)c(F)c2)c1=O
IC50 [1]: 0.03 µM
IC50 (NCI-N87): > 5 µM
IC50 [2]: 3.7 µM

SMILES: O=C(Nc1ccc(Oc2ccnc3[nH]ccc23)c(F)c1)c1cccn(Cc2ccc(F)cc2)c1=O
IC50 [1]: 0.0082 µM
IC50 (NCI-N87): > 5 µM
IC50 [2]: 2.1 µM

SMILES: O=C(Nc1ccc(Oc2ccnc3[nH]ccc23)c(F)c1)c1cccn(-c2ccccn2)c1=O
IC50 [1]: 0.01 µM
IC50 (NCI-N87): > 5 µM
IC50 [2]: 0.97 µM

SMILES: O=C(Nc1ccc(Oc2ccnc3[nH]ccc23)c(F)c1)c1cncc(-c2ccc(F)cc2)c1O
IC50 [1]: 0.0028 µM
IC50 (NCI-N87): 1.24 µM
IC50 [2]: 0.07 µM

SMILES: Cn1cc(C(=O)Nc2ccc(Oc3ccnc4[nH]ccc34)c(F)c2)c(=O)c(-c2ccc(F)cc2)c1
IC50 [1]: 0.0031 µM
IC50 (NCI-N87): 2.62 µM
IC50 [2]: 0.15 µM

SMILES: O=C(Nc1ccc(Oc2ccnc3[nH]ccc23)c(F)c1)c1cn(C2CC2)cc(-c2ccc(F)cc2)c1=O
IC50 [1]: 0.0034 µM
IC50 (NCI-N87): > 5 µM
IC50 [2]: 0.06 µM

IC50 [1]: 0.0013 µM
SMILES: O=C(Nc1ccc(Oc2ccnc3[nH]ccc23)c(F)c1)c1cccc(-c2ccccc2)[n+]1[O-]
IC50 (NCI-N87): > 5 µM
IC50 [2]: 0.04 µM

IC50 [1]: 0.0018 µM
SMILES: O=C(Nc1ccc(Oc2ccnc3[nH]ccc23)c(F)c1)c1cccc(-c2ccc(F)cc2)[n+]1[O-]
IC50 (NCI-N87): 4.9 µM
IC50 [2]: 0.04 µM

SMILES: COc1ccc(-n2cc(C(=O)Nc3ccc(Oc4ccnc5[nH]ccc45)c(F)c3)c(=O)c(-c3ccc(F)cc3)c2)cc1F
IC50 [1]: 0.005 µM
IC50 (NCI-N87): > 5 µM
IC50 [2]: 0.2 µM

SMILES: O=C(Nc1ccc(Oc2ccnc3[nH]ccc23)c(F)c1)c1cn(-c2ccc(Cl)c(F)c2)cc(-c2ccc(F)cc2)c1=O
IC50 [1]: 0.0023 µM
IC50 (NCI-N87): > 5 µM
IC50 [2]: 0.13 µM

SMILES: CC(C)(C)n1cccc(C(=O)Nc2ccc(Oc3ccnc4[nH]ccc34)c(F)c2)c1=O
IC50 [1]: 1 µM

SMILES: O=C(Nc1ccc(Oc2ccnc3[nH]ccc23)c(F)c1)c1cccn(C2CC2)c1=O
IC50 [1]: 1 µM

IC50 [1]: 0.47 µM
SMILES: O=C(Nc1ccc(Oc2ccnc3[nH]ccc23)c(F)c1)c1cccc(-c2ccccc2)n1

SMILES: O=C(Nc1ccc(Oc2ccnc3[nH]ccc23)c(F)c1)c1cn(CCO)cc(-c2ccc(F)cc2)c1=O
IC50 [1]: 0.0038 µM
IC50 (NCI-N87): > 5 µM
IC50 [2]: 0.28 µM

SMILES: O=C(Nc1ccc(Oc2ccnc3[nH]ccc23)c(F)c1)c1cccn(-c2ccc(F)cc2)c1=O
half-life [3]: 2.5 h
Tmax [4]: 0.5 h
IC50 [5]: 0.027 µM
IC50 [6]: > 1 µM
MRT [7]: 3 h
AUC(0-t) at 24 h [8]: 19.8 µM·h
inhibition in vivo at 12.5 mg/kg [9]: 62%
half-life [10]: 2.2 h
Stability (Liver microsomes): < 0.01 nM/min/mg
minimal effective dose [11]: 12.5 mg/kg
bioavailability [12]: 100%
MTD at 336 h [13]: 100 mg/kg
IC50 [14]: > 30 µM
IC50 (NCI-N87): > 5 µM
IC50 [15]: 0.004 µM
Cmax [16]: 11.5 µM
AUC(0-t) at 24 h [17]: 50.2 µM·h
Activity (Serum [18]): 99.4%
IC50 (Insulin receptor): > 5 µM
IC50 [19]: > 30 µM
IC50 [20]: 0.29 µM
IC50 [21]: 0.61 µM
Vd [22]: 1.6 L/kg
MRT [23]: 4.5 h
inhibition in vivo at 25 mg/kg [24]: 86%
clearance [25]: 0.552 L/h/kg
Stability [26]: 0.055 nM/min/mg
inhibition in vivo at 50 mg/kg [27]: 110%
IC50 [28]: > 5 µM
IC50 [29]: > 10 µM
Activity (Serum [30]): 99.9%

SMILES: O=C(Nc1ccc(Oc2ccnc3[nH]ccc23)c(F)c1)c1cccn(-c2cccnc2)c1=O
IC50 [1]: 0.07 µM
IC50 (NCI-N87): > 5 µM
IC50 [2]: 4 µM
